Assay results taken from PubChem BioAssay AID1963860 (Molecular Pharmacology Branch, DTP, NCI, 2024).

System: CN0375-F725-PDC KRAS spheroid viability
Test: Anticancer human tumor CN0375-F725-PDC patient-derived colon carcinoma cell line growth inhibition [KRAS2]
Details: spheroids with HUVEC and MSC; for viability, T/C: stronger effect = lower value
From the text: Multicellular complex tumor spheroid response to RAS pathway inhibitors in combination with a targeted agents in patient-derived cell lines with oncogenic KRAS variants from multiple cancer types
A high-throughput screen of multi-cell type tumor spheroids was designed to identify active combinations of targeted small molecules and KRAS pathway inhibitors. Complex spheroids include a stromal component modeled by human endothelial cells (HUVEC) and fibroblasts modeled by human mesenchymal stem cells (MSCs). The concentration ranges selected for each drug and investigational agent were based upon clinically achievable concentrations if the clinical Cmax of the agent was known.
Compounds. The drugs and investigational agents: BI-3406 (NSC825286), BAY-293 (NSC824723), batoprotafib (TNO155; NSC825523), sotorasib (AMG 510; NSC818433), MRTX1257 (NSC819558), elimusertib (BAY 1895344; NSC800525), molibresib (GSK525762; NSC774829), temuterkib (LY3214996; NSC803410), venetoclax (NSC766270), alisertib (NSC759677), olaparib (NSC753686), talazoparib (NSC767125), erdafitinib (NSC781556), ipatasertib (NSC767898), cabozantinib (NSC761068), nintedanib (NSC756659), abemaciclib (NSC768073), docetaxel (NSC628503), trametinib (NSC758246), and sapanisertib (NSC764658) were obtained from the National Cancer Institute (NCI) Developmental Therapeutics Program Chemical Repository. The FDA-approved anticancer drug set is available from the Developmental Therapeutics Program. […] The stock solutions were prepared in dimethyl sulfoxide (DMSO, Sigma-Aldrich, St. Louis, MO, cat. D2650) at 800-fold the tested concentration and stored at -70 degrees C prior to their use. All drugs and investigational agents were tested over a range starting from a high concentration at or near the clinical Cmax and decreasing in half-log increments. If the clinical Cmax for an agent had not been determined, the highest concentration tested was 10 microM.
Cell Culture. All cells were maintained in an incubator at 37 degrees C and 5% CO2 with 95% humidity. The PDC lines were cultured according to standard operating procedures established by the NCI PDMR (https://pdmr.cancer.gov/sops/default.htm). Briefly, all PDCs were thawed and cultured in Matrigel-coated flasks prepared with a working solution of 1X Ham's F-12 nutrient mix, without supplementation (Invitrogen, Waltham, MA, cat. 11765054), 100 U/mL penicillin-streptomycin (Invitrogen, cat. 15140122), and 2.5% Matrigel (Corning Inc., Corning, NY, cat. 354248) for the first three passages. All PDCs were cultured in complete DMEM/F-12 media containing advanced DMEM/F-12 (Invitrogen, cat. 12634028), 4.9% defined fetal bovine serum, heat inactivated (HyClone Laboratories Inc., Logan, UT, cat. SH30070.03HI), 389 ng/mL hydrocortisone (Sigma-Aldrich, cat. H4001), 9.7 ng/mL human EGF recombinant protein (Invitrogen, cat. PHG0313), 23.4 microg/mL adenine (Sigma-Aldrich, cat. A2786), 97.3 U/mL penicillin-streptomycin (Invitrogen, cat. 15140122), 1.9 mM L-glutamine (Invitrogen, cat. 25030081), and 9.7 microM Y-27632 dihydrochloride (Tocris Bioscience, Bristol, United Kingdom, cat. 1254). The PDCs were cultured in complete DMEM/F12 media without 9.7 microM Y-27632 dihydrochloride for at least two passages prior to the screen. The established cell line HOP-62 was cultured in RPMI 1640 medium, HEPES (Invitrogen, cat. 22400105) with 10% defined fetal bovine serum (HyClone Laboratories Inc., cat. SH30070.03) and 2 mM L-glutamine (Invitrogen, cat. 25030081). The pooled donor HUVEC were cultured in endothelial cell growth medium 2 (PromoCell, Heidelberg, Germany, cat. C-22011) and the hMSC were cultured in mesenchymal stem cell growth medium 2 (PromoCell, cat. C-28009). For all experiments, HUVEC and hMSC were used at passages </=5, while the malignant cell lines were used at passages </=15. […]

[1] = curve of first compound, second compound 0.1 µM
[2] = curve of first compound, second compound 0.316 µM
[3] = curve of first compound, second compound 1 µM
[4] = curve of first compound, second compound 3.16 µM
[5] = curve of first compound, second compound 10 µM
[6] = second compound 0.1 µM, first compound 0.0316 µM
[7] = second compound 0.1 µM, first compound 0.1 µM
[8] = second compound 0.1 µM, first compound 0.316 µM
[9] = second compound 0.1 µM, first compound 1 µM
[10] = second compound 0.316 µM, first compound 0.0316 µM
[11] = second compound 0.316 µM, first compound 0.1 µM
[12] = second compound 0.316 µM, first compound 0.316 µM
[13] = second compound 0.316 µM, first compound 1 µM
[14] = second compound 1 µM, first compound 0.0316 µM
[15] = second compound 1 µM, first compound 0.1 µM
[16] = second compound 1 µM, first compound 0.316 µM
[17] = second compound 1 µM, first compound 1 µM
[18] = second compound 3.16 µM, first compound 0.0316 µM
[19] = second compound 3.16 µM, first compound 0.1 µM
[20] = second compound 3.16 µM, first compound 0.316 µM
[21] = second compound 3.16 µM, first compound 1 µM
[22] = second compound 10 µM, first compound 0.0316 µM
[23] = second compound 10 µM, first compound 0.1 µM
[24] = second compound 10 µM, first compound 0.316 µM
[25] = second compound 10 µM, first compound 1 µM
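Also: spheroids exposed to agents for 7 days.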

Cn1ncnc1[C@H]1c2n[nH]c(=O)c3cc(F)cc(c23)N[C@@H]1c1ccc(F)cc1
viability, T/C (compound 0.000316 µM): 107% [middle of 5 runs] | viability, T/C (compound 0.001 µM): 102% [middle of 5 runs] | viability, T/C (compound 0.00316 µM): 99.8% [middle of 5 runs] | viability, T/C (compound 0.01 µM): 101% [middle of 5 runs] | viability, T/C (compound 0.0316 µM): 102% [middle of 5 runs] | viability, T/C (compound 0.1 µM): 96% [middle of 5 runs] | IC50 (curve of compound): > 100 nM

CCN1CCN(Cc2ccc(Nc3ncc(F)c(-c4cc(F)c5nc(C)n(C(C)C)c5c4)n3)nc2)CC1 + COc1cc2nc(C)nc(NC(C)c3cc(N)cc(C(F)(F)F)c3)c2cc1OC1CCOC1
IC50 [1]: > 1000 nM | IC50 [2]: > 1000 nM | IC50 [3]: > 1000 nM | IC50 [4]: > 1000 nM | IC50 [5]: < 3.16 nM | viability, T/C (second compound 0.1 µM, first compound 0.00316 µM): 96.4% | viability, T/C (second compound 0.1 µM, first compound 0.01 µM): 89.7% | viability, T/C [6]: 81.9% | viability, T/C [7]: 88.1% | viability, T/C [8]: 90.7% | viability, T/C [9]: 94.7% | viability, T/C (second compound 0.316 µM, first compound 0.00316 µM): 93% | viability, T/C (second compound 0.316 µM, first compound 0.01 µM): 91.2% | viability, T/C [10]: 79.2% | viability, T/C [11]: 82% | viability, T/C [12]: 92.8% | viability, T/C [13]: 78% | viability, T/C (second compound 1 µM, first compound 0.00316 µM): 91.1% | viability, T/C (second compound 1 µM, first compound 0.01 µM): 85.3% | viability, T/C [14]: 79.3% | viability, T/C [15]: 81.6% | viability, T/C [16]: 86.5% | viability, T/C [17]: 83% | viability, T/C (second compound 3.16 µM, first compound 0.00316 µM): 84.3% | viability, T/C (second compound 3.16 µM, first compound 0.01 µM): 79.9% | viability, T/C [18]: 71.3% | viability, T/C [19]: 70.7% | viability, T/C [20]: 71.7% | viability, T/C [21]: 49.5% | viability, T/C (second compound 10 µM, first compound 0.00316 µM): 14.6% | viability, T/C (second compound 10 µM, first compound 0.01 µM): 14.5% | viability, T/C [22]: 13.4% | viability, T/C [23]: 15.4% | viability, T/C [24]: 6.49% | viability, T/C [25]: 0.9%

O=C(c1cc(Cc2n[nH]c(=O)c3ccccc23)ccc1F)N1CCN(C(=O)C2CC2)CC1 + CNCc1ccccc1-c1csc(C(C)Nc2nc(C)nc3cc(OC)c(OC)cc23)c1
IC50 [1]: > 10000 nM | IC50 [2]: > 10000 nM | IC50 [3]: > 10000 nM | IC50 [4]: < 31.6 nM | IC50 [5]: < 31.6 nM | viability, T/C [6]: 112% | viability, T/C [7]: 109% | viability, T/C [8]: 100% | viability, T/C [9]: 107% | viability, T/C (second compound 0.1 µM, first compound 3.16 µM): 104% | viability, T/C (second compound 0.1 µM, first compound 10 µM): 95.5% | viability, T/C [10]: 108% | viability, T/C [11]: 105% | viability, T/C [12]: 96.8% | viability, T/C [13]: 92.3% | viability, T/C (second compound 0.316 µM, first compound 3.16 µM): 96.9% | viability, T/C (second compound 0.316 µM, first compound 10 µM): 87.7% | viability, T/C [14]: 96.9% | viability, T/C [15]: 94.8% | viability, T/C [16]: 89.7% | viability, T/C [17]: 81% | viability, T/C (second compound 1 µM, first compound 3.16 µM): 87.8% | viability, T/C (second compound 1 µM, first compound 10 µM): 79.6% | viability, T/C [18]: 0.68% | viability, T/C [19]: 0.36% | viability, T/C [20]: 0.74% | viability, T/C [21]: 0.33% | viability, T/C (second compound 3.16 µM, first compound 3.16 µM): 0.37% | viability, T/C (second compound 3.16 µM, first compound 10 µM): 0.55% | viability, T/C [22]: 0.64% | viability, T/C [23]: 0.22% | viability, T/C [24]: 0.57% | viability, T/C [25]: 0.37% | viability, T/C (second compound 10 µM, first compound 3.16 µM): 0.19% | viability, T/C (second compound 10 µM, first compound 10 µM): 0.33%
